Where “and” joins values, the source holds several entries; their conditions need not be identical. Identical values can stand only once.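 These data come from cells grown in 96-well plates and exposed to compound for 48 hours at five concentrations. At the GI50, growth is halved. At the TGI there is no net growth.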

Among the test systems are ACHN renal; CAKI-1 renal; EKVX NSCLC; MDA-MB-231 breast; NCI-H23 lung; OVCAR-5 ovarian; PC-3 prostate; RPMI-8226 leukemia; SW-620 colon; UACC-257 melanoma.
Assay in all cases: inhibition of tumour cell growth, NCI panel, 48 h

Consider `CCOC1Oc2ccccc2C(=O)/C1=C\Nc1ccc(C(=O)O)c(O)c1` (stereo unspecified), for which the GI50 in the experiment with ACHN renal was 18.3 µM; in the experiment with CAKI-1 renal, 20.9 µM; in the experiment on EKVX NSCLC, 36.7 µM; in the experiment with MDA-MB-231 breast it was 14 µM; with NCI-H23 lung, 21.4 µM; with OVCAR-5 ovarian, 43.2 µM. For the same compound, the GI50 with PC-3 prostate was 39.2 µM; in the experiment on RPMI-8226 leukemia it was 20 µM; with SW-620 colon it was 30.8 µM; in the experiment with UACC-257 melanoma it was 19.4 µM. Moreover, the TGI with ACHN renal is 44.3 µM; in the experiment with CAKI-1 renal, 44 µM; in the experiment on EKVX NSCLC, 96.1 µM; in the experiment with MDA-MB-231 breast, 31.2 µM; in the experiment with NCI-H23 lung it was 63.1 µM; with OVCAR-5 ovarian it was more than 100 µM. The TGI in the experiment on PC-3 prostate was more than 100 µM; with RPMI-8226 leukemia, more than 100 µM; in the experiment with SW-620 colon, more than 100 µM; in the experiment with UACC-257 melanoma, 44.6 µM.
Turning to `CC[C@H](C)C(=O)O[C@H]1CCC=C2C=C[C@H](C)[C@H](CC[C@@H]3C[C@@H](O)CC(=O)O3)[C@H]21`, the GI50 was 1.46 µM in the experiment on ACHN renal; 2.6 µM with CAKI-1 renal; 7.93 µM in the experiment with EKVX NSCLC; 0.352 µM in the experiment with MDA-MB-231 breast; 8.37 µM with NCI-H23 lung; 14.4 µM in the experiment on OVCAR-5 ovarian. For the same compound, the GI50 in the experiment on PC-3 prostate is 1.7 µM; with RPMI-8226 leukemia, 13.1 µM; in the experiment with SW-620 colon it was 11.8 µM; with UACC-257 melanoma it was 73.3 µM. The TGI in the experiment on ACHN renal is 5.18 µM; in the experiment on CAKI-1 renal, 11.2 µM; with EKVX NSCLC, more than 100 µM; with MDA-MB-231 breast, 2.54 µM; in the experiment with NCI-H23 lung, more than 100 µM; with OVCAR-5 ovarian it was more than 100 µM. Besides, the TGI was more than 100 µM in the experiment with PC-3 prostate, more than 75.9 µM in the experiment on RPMI-8226 leukemia, more than 100 µM in the experiment on SW-620 colon and more than 100 µM with UACC-257 melanoma.
`O=C(O)C1C2C=CC(O2)C1C(=O)NCc1ccncc1` (stereo unspecified): the TGI with ACHN renal, with CAKI-1 renal, in the experiment with EKVX NSCLC, in the experiment on MDA-MB-231 breast, with OVCAR-5 ovarian and in the experiment on PC-3 prostate was more than 100 µM throughout. In addition, the TGI with RPMI-8226 leukemia, in the experiment with SW-620 colon and in the experiment on UACC-257 melanoma was more than 100 µM in each case.
Turning to `CC(C)c1ccc(C(O)(C(=O)O)c2ccc(C(C)C)cc2)cc1`, the TGI in the experiment with ACHN renal is more than 100 µM; in the experiment on CAKI-1 renal it was more than 100 µM; in the experiment with EKVX NSCLC, more than 100 µM; in the experiment with NCI-H23 lung, more than 100 µM; in the experiment on OVCAR-5 ovarian, more than 100 µM; in the experiment on PC-3 prostate it was 51.1 µM. For the same compound, the TGI with RPMI-8226 leukemia is 72 µM; in the experiment with SW-620 colon, more than 100 µM; in the experiment on UACC-257 melanoma, more than 100 µM.
For the compound `COc1ccccc1/C=C1\CCC(CN2CCOCC2)C1=O` (stereo unspecified), the TGI with ACHN renal came to 30 µM; in the experiment with CAKI-1 renal, 32.1 µM; with EKVX NSCLC, 30.6 µM; with MDA-MB-231 breast, 11.5 µM; with NCI-H23 lung it was 43.5 µM; in the experiment on OVCAR-5 ovarian, 33.7 µM. The TGI is 30 µM in the experiment with PC-3 prostate, 11.5 µM in the experiment on SW-620 colon and 23.9 µM with UACC-257 melanoma.
Consider `N#Cc1ccc(C(=O)c2cnn(-c3ccc(F)cc3)c2N)cc1`, for which the GI50 is more than 25 µM with ACHN renal; more than 25 µM in the experiment with CAKI-1 renal; more than 23.3 µM with MDA-MB-231 breast; more than 25 µM in the experiment on NCI-H23 lung; more than 25 µM in the experiment with OVCAR-5 ovarian; more than 25 µM in the experiment with PC-3 prostate. The GI50 in the experiment on RPMI-8226 leukemia, in the experiment with SW-620 colon and with UACC-257 melanoma was more than 25 µM in each case. Further, the TGI with ACHN renal, in the experiment on CAKI-1 renal, in the experiment on MDA-MB-231 breast, in the experiment with NCI-H23 lung, in the experiment with OVCAR-5 ovarian and with PC-3 prostate was more than 25 µM each time. The TGI in the experiment with RPMI-8226 leukemia, in the experiment on SW-620 colon and with UACC-257 melanoma was more than 25 µM in each case.
Take `CCCCNP1(NCCCC)=NP(NCCCC)(NCCCC)=NP(NCCCC)(NCCCC)=NP(NCCCC)(NCCCC)=N1`: the GI50 with ACHN renal is 2.5 µM; with CAKI-1 renal, 9.3 µM; with EKVX NSCLC, 0.25 µM; in the experiment on MDA-MB-231 breast it was 0.418 µM; with NCI-H23 lung, 0.271 µM; in the experiment with OVCAR-5 ovarian it was 1.61 µM. The figures for the GI50 in the experiment with PC-3 prostate, with SW-620 colon and in the experiment on UACC-257 melanoma were 0.24 µM, 0.861 µM and 1.23 µM, respectively. The TGI is more than 32.9 µM in the experiment on ACHN renal; 36 µM in the experiment on CAKI-1 renal; 6.17 µM in the experiment with EKVX NSCLC; 4.08 µM in the experiment with MDA-MB-231 breast; 3.2 µM in the experiment with NCI-H23 lung; 9.81 µM with OVCAR-5 ovarian. Besides, the values for the TGI with PC-3 prostate, in the experiment on SW-620 colon and in the experiment with UACC-257 melanoma were 12.4 µM, 15.9 µM and 5.55 µM, respectively.
Turning to `CC[C@H](C)[C@H](NC(=O)[C@H]1CCCCN1C)C(=O)N(C)[C@H](C[C@@H](OC(C)=O)c1nc(C(=O)NC23C4C5C2C2C3C4C52C(=O)OC)cs1)C(C)C` (stereo partly specified), the GI50 with ACHN renal is 0.0189 µM and 0.0025 µM; in the experiment on CAKI-1 renal, 0.016 µM; in the experiment with EKVX NSCLC, 0.027 µM and 0.011 µM; with MDA-MB-231 breast, 0.00429 µM and 0.0025 µM; with NCI-H23 lung, 0.00414 µM and 0.0025 µM; in the experiment with OVCAR-5 ovarian, 0.0702 µM and 0.0707 µM. Besides, the GI50 is 0.00263 µM and 0.0025 µM in the experiment on PC-3 prostate; 0.00197 µM and 0.0025 µM in the experiment with RPMI-8226 leukemia; 0.00149 µM and 0.0025 µM in the experiment with SW-620 colon. For the same compound, the TGI was 4.03 µM in the experiment on ACHN renal; more than 25 µM with EKVX NSCLC; more than 25 µM in the experiment on MDA-MB-231 breast; more than 25 µM with NCI-H23 lung; more than 25 µM in the experiment with OVCAR-5 ovarian; more than 25 µM with PC-3 prostate. Further, the TGI with RPMI-8226 leukemia was 7 µM; with SW-620 colon it was more than 25 µM.
For `CCN(CC)CCNc1ccc(N=Nc2cnc3ccccc3c2)c2ccccc12`, the GI50 is 1.61 µM in the experiment with ACHN renal; 1.39 µM with CAKI-1 renal; 1.12 µM in the experiment on MDA-MB-231 breast; 1.6 µM in the experiment on NCI-H23 lung; 1.64 µM in the experiment on OVCAR-5 ovarian; 1.28 µM in the experiment on PC-3 prostate. In addition, the GI50 was 1.83 µM in the experiment with SW-620 colon and 1.96 µM in the experiment on UACC-257 melanoma. Besides, the TGI in the experiment with ACHN renal amounted to 3.15 µM; with CAKI-1 renal, 3.21 µM; in the experiment on MDA-MB-231 breast, 2.38 µM; with NCI-H23 lung it was 3.07 µM; in the experiment on OVCAR-5 ovarian it was 3.24 µM; in the experiment on PC-3 prostate, 2.6 µM. The TGI in the experiment with SW-620 colon stood at 3.47 µM; in the experiment with UACC-257 melanoma it was 3.49 µM.

(Values after PubChem BioAssay (NCI).)
